In series [1] the test system is MCF7. The experiment in a line: Cytotoxicity against human MCF7 cells assessed as reduction in cell viability after 48 hrs by MTT assay. It counts as functional, cell-based. The following applies: MCF7, 48 h.
In series [2] the test system is MDA-MB-231. The experiment in a line: Cytotoxicity against human MDA-MB-231 cells assessed as induction of cell death at 0.5 to 25 uM after 48 hrs by MTT assay. It counts as functional, cell-based.
For series [3], the system named is MDA-MB-231. As to the kind of experiment: Induction of cell death in human MDA-MB-231 cells at 10 to 50 uM after 24 hrs using calcein AM and ethidium homodimer-1 by live/dead assay. The series is classed as functional, cell-based.
Series [4] deals with MCF7. The experiment in a line: Cytotoxicity against human MCF7 cells assessed as reduction in cell viability after 96 hrs by MTT assay. The series is classed as functional, cell-based. As to conditions: MCF7, 96 h.
In series [5] the test system is MDA-MB-231. The experiment in a line: Ratio of ospemifene IC50 to compound IC50 for human MDA-MB-231 cells assessed as reduction in cell viability after 96 hrs by MTT assay. It counts as functional.
Series [6] has as its system MCF7. The experiment in a line: Induction of cell death in human MCF7 cells at 10 to 50 uM after 24 hrs using calcein AM and ethidium homodimer-1 by live/dead assay. The series is classed as functional.
In series [7] the test system is MCF7. The experiment in a line: Ratio of tamoxifen IC50 to compound IC50 for human MCF7 cells assessed as reduction in cell viability after 96 hrs by MTT assay. The series is classed as functional.
Series [8] relates to MCF7. The experiment in a line: Ratio of ospemifene IC50 to compound IC50 for human MCF7 cells assessed as reduction in cell viability after 96 hrs by MTT assay. It counts as functional.
Series [9] deals with MDA-MB-231. The experiment in a line: Cytotoxicity against human MDA-MB-231 cells assessed as reduction in cell viability after 48 hrs by MTT assay. The series is classed as functional, cell-based. As to conditions: MDA-MB-231, 48 h.
Series [10] concerns MDA-MB-231. The experiment in a line: Cytotoxicity against human MDA-MB-231 cells assessed as reduction in cell viability after 96 hrs by MTT assay. It counts as functional, cell-based. The following applies: MDA-MB-231, 96 h.
The subject of series [11] is MDA-MB-231. The experiment in a line: Induction of cell death in human MDA-MB-231 cells at 10 uM after 24 hrs using calcein AM and ethidium homodimer-1 by live/dead assay. The series is classed as functional.
Series [12] has as its system MEF. The experiment in a line: Cytotoxicity against MEFs assessed as reduction in cell viability up to 100 uM after 48 to 96 hrs by MTT assay. The series is classed as cell-based. The following applies: mouse.
For series [13], the system named is MDA-MB-231. As to the kind of experiment: Ratio of tamoxifen IC50 to compound IC50 for human MDA-MB-231 cells assessed as reduction in cell viability after 96 hrs by MTT assay. The series is classed as functional.
The subject of series [14] is MCF7. The experiment in a line: Induction of cell death in human MCF7 cells at 10 uM after 24 hrs using calcein AM and ethidium homodimer-1 by live/dead assay. It counts as functional.
Series [15] concerns MCF7. The experiment in a line: Cytotoxicity against human MCF7 cells assessed as induction of cell death at 0.5 to 25 uM after 48 hrs by MTT assay. The series is classed as functional, cell-based.

The source made the active and inactive calls. No cut-off for these calls is given here. Where only a bound is given, the exact number is not on record here.

For `NCCOc1ccc(/C(=C(/CCN)c2ccccc2)c2ccccc2)cc1`, the IC50 in [1] worked out at 23.6 µM; in series [4] it was 11.2 µM; in series [9] it was 17.1 µM; in series [10], 13.4 µM. Besides, the result in series [2], in series [3], in series [6] and in [15] was Active. In addition, the “Ratio IC50” value in series [5] is on record as 5; in [7] it was greater than 5; in series [8] it was 5; in series [13], greater than 5. The Activity was 70% in series [11], “Non-toxic” in series [12] and 70% in series [14].

As for `OCCOc1ccc(/C(=C(/CCCl)c2ccccc2)c2ccccc2)cc1` [OSPEMIFENE], the IC50 in series [1] is greater than 100 µM; in series [4] it was 55 µM; in series [9] it was greater than 100 µM; in series [10], greater than 100 µM. The Activity entry in [12] is reported as “Non-toxic”.

With `CC/C(=C(\c1ccccc1)c1ccc(OCCN(C)C)cc1)c1ccccc1` [TAMOXIFEN], the Activity entry in [12] is recorded as “Non-toxic”.

With `[N-]=[N+]=NCCOc1ccc(/C(=C(/CCN=[N+]=[N-])c2ccccc2)c2ccccc2)cc1`, the result in series [2] and in [15] was inactive.

Consider `[N-]=[N+]=NCC/C(=C(\c1ccccc1)c1ccc(OCCO)cc1)c1ccccc1`, for which the half-inhibitory concentration (IC50) in [1], in series [4], in series [9] and in series [10] was greater than 100 µM in each case. Further, the result in [15] was Active.

Turning to `NCC/C(=C(\c1ccccc1)c1ccc(OCCO)cc1)c1ccccc1`, the IC50 worked out at 15.9 µM in series [1], 12.4 µM in series [4], 25 µM in series [9] and 14.5 µM in [10]. Besides, the outcome in series [2], in [3] and in [15] was Active. For the same molecule, the “Ratio IC50” value is 5 in series [5], greater than 5 in [7], 5 in series [8] and greater than 5 in series [13]. The Activity in series [6] is 50%; in series [12], “Non-toxic”.

Turning to `[N-]=[N+]=NCCOc1ccc(/C(=C(/CCCl)c2ccccc2)c2ccccc2)cc1`, the result in series [2] and in series [15] was inactive.

As to `O=C(NCC/C(=C(\c1ccccc1)c1ccc(OCCO)cc1)c1ccccc1)Oc1ccccc1`, the IC50 in series [1] was 76 µM; in series [4], 50 µM; in series [9], greater than 100 µM; in [10], 62.3 µM. Besides, the outcome in [2] and in [15] was Active.

In the case of `CS(=O)(=O)OCCOc1ccc(/C(=C(/CCCl)c2ccccc2)c2ccccc2)cc1`, the result in series [2] and in [15] was inactive.

Values taken from ChEMBL document CHEMBL3351602 (Eur J Med Chem, 2014).
